The subject of one experiment is E. coli K12 (ATCC 47076). As to the kind of experiment: MIC broth microdilution method, Table 3. Conditions: Escherichia coli, ATCC47076. For orientation: Dilution methods test growth across graded concentrations, often in twofold steps.
The next experiment concerns HRPTEpiC. The experiment is described as follows: Cytotoxicity tested by Eurofins Pharma Discovery Services. Format: cell-based. The following applies: data provided by Eurofins, read-out: IC50.
Experiment [1] concerns A. baumannii 1674627 (MDR). The experiment is described as follows: MIC against resistant strains, Tables 5a-5d. Format: cell-based. The following applies: Acinetobacter baumannii, n = 3. As for the experimental part: (§1) Compounds described herein were evaluated for growth inhibition against a variety of bacterial species, including strains that have developed resistance to common antibacterial treatments, according to the procedure described herein, or by analogous procedures known to those skilled in the art. Resistant bacterial strains used for compound testing include methicillin-resistant S. aureus (MRSA), vancomycin resistant Enterococci (VRE) and various multi-drug resistant (MDR) strains commonly associated with hospital-acquired (nosocomial) infections, including, but not limited to A. baumannii, K. pnuemoniae, and E. cloacae.

Experiment [2] concerns K. pneumoniae ATCC BAA-2473 (MDR). The experiment is described as follows: MIC against resistant strains, Tables 5a-5d. The following applies: Klebsiella pneumoniae, ATCCBAA2473, n = 3. Format: cell-based. As for the experimental part:
as §1

Experiment [3] relates to S. aureus ATCC 33591 (MRSA). As to the kind of experiment: MIC against resistant strains, Tables 5a-5d. The experiment is classed as cell-based. Conditions: Staphylococcus aureus, n = 3. On the procedure:
as §1

Experiment [4] has as its system A. baumannii CDC0290 (MDR). As to the kind of experiment: MIC against resistant strains, Tables 5a-5d. Format: cell-based. The following applies: Acinetobacter baumannii, n = 3. On the procedure: as §1
For experiment [5], the system named is S. aureus ATCC BAA-1717 (MRSA). As to the kind of experiment: MIC against resistant strains, Tables 5a-5d. The experiment is classed as cell-based. Conditions: Staphylococcus aureus, n = 3. On the procedure:
as §1

The subject of experiment [6] is E. cloacae 1744299 (ESBL). As to the kind of experiment: MIC against resistant strains, Tables 5a-5d. The experiment is classed as cell-based. Conditions: Enterobacter cloacae, n = 3. As for the experimental part: as §1
Experiment [7] concerns P. aeruginosa 1674623 (MDR). As to the kind of experiment: MIC against resistant strains, Tables 5a-5d. Format: cell-based. The following applies: Pseudomonas aeruginosa, n = 3. As for the experimental part: as §1
Experiment [8] relates to P. aeruginosa CDC0248 (MDR). The experiment is described as follows: MIC against resistant strains, Tables 5a-5d. Format: cell-based. The following applies: Pseudomonas aeruginosa, n = 3. As for the experimental part:
as §1

Experiment [9] relates to S. epidermidis (ATCC 14990). The experiment is described as follows: MIC broth microdilution method, Table 3. The following applies: Staphylococcus epidermidis, ATCC14990.
Experiment [10] relates to Hep G2 (ATCC HB-8065) cells. As to the kind of experiment: Cytotoxicity, MTT assay. Conditions: Homo sapiens, HepG2, 24 h, Hep G2; MTT, 24 hours incubation; read-out: IC50. The experiment is classed as cell-based. The method in brief:
(§2)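 Cells seeded at 5000/well (NIH 3T3) or 10000/well (Hep G2, J774, RAW264.7) in DMEM+10% FBS, incubated overnight, then exposed 24 h to 2-fold serial dilutions (9 concentrations, six replicates each). MTT added for 4 h, formazan dissolved in DMSO, A570 read. Viability expressed as blank-corrected absorbance relative to medium-only control.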

Experiment [11] deals with NIH 3T3 (ATCC CRL-1658) cells. The experiment is described as follows: Cytotoxicity, MTT assay. The experiment is classed as cell-based. Conditions: Mus musculus, NIH3T3; NIH 3T3; MTT, 24 hours incubation; read-out: IC50. Summed up: as §2
In general terms: Tetrazolium dyes change colour on reduction, which living cells bring about.

For a further experiment, the system named is J774 (ATCC TIB-67) cells. As to the kind of experiment: Cytotoxicity, MTT assay. The experiment is classed as cell-based. The following applies: Mus musculus, MTT, 24 hours incubation, read-out: IC50. Summed up: as §2
The subject of another experiment is Hep G2 cells. As to the kind of experiment: Cytotoxicity tested by Eurofins Pharma Discovery Services. The experiment is classed as cell-based. Conditions: Homo sapiens, HepG2; Hep G2; data provided by Eurofins; read-out: IC50.

Broadly, the MIC is the least concentration at which growth counts as inhibited. Lower therefore signals a more susceptible organism. As usually defined, the IC50 is the concentration needed to halve the response being measured.

SMILES strings stand for the structures. Some results are limits rather than exact numbers.

Regarding `CCCCCC[N+](C)(C)CCCCCCOc1cc(/C=C/c2cc(OCCCCCC[N+](C)(C)CCCCCC)cc(OCCCCCC[N+](C)(C)CCCCCC)c2)cc(OCCCCCC[N+](C)(C)CCCCCC)c1` [Formula E], the minimal inhibitory concentration (MIC) in the experiment with E. coli K12 (ATCC 47076) stood at 4 µg/mL; in experiment [1], 4 µg/mL; in [2], 2 µg/mL; in [3] it was 0.5 µg/mL; in experiment [4] it was 4 µg/mL; in [5] it was 0.5 µg/mL. Moreover, the minimal inhibitory concentration (MIC) in experiment [6] is 2 µg/mL; in experiment [7], 8 µg/mL; in experiment [8], 8 µg/mL; in experiment [9], 4 µg/mL. Also, the IC50 was 2.6 µg/mL in the experiment with HRPTEpiC; 7.3 µg/mL in experiment [10]; 10.4 µg/mL in [11]; 2.5 µg/mL in the experiment with J774 (ATCC TIB-67) cells; 5.6 µg/mL with Hep G2 cells.
With `C[N+](C)(C)CCCCOc1cc(/C=C/c2ccc(/C=C/c3cc(OCCCC[N+](C)(C)C)cc(OCCCC[N+](C)(C)C)c3)cc2)cc(OCCCC[N+](C)(C)C)c1.[I-].[I-].[I-].[I-]` [Formula F], the MIC worked out at 32 µg/mL against E. coli K12 (ATCC 47076); 64 µg/mL in experiment [1]; 32 µg/mL in [2]; 2 µg/mL in experiment [3]; 64 µg/mL in experiment [4]; 2 µg/mL in experiment [5]. Also, the MIC was 8 µg/mL in experiment [6], over 64 µg/mL in experiment [7], over 64 µg/mL in experiment [8] and 2 µg/mL in experiment [9]. Further, the IC50 with HRPTEpiC was 79.2 µg/mL; in experiment [10] it was over 1020 µg/mL; in experiment [11] it was over 128 µg/mL; in the experiment with J774 (ATCC TIB-67) cells, over 128 µg/mL; in the experiment on Hep G2 cells, over 324 µg/mL.

(Values after patent US11713318B2, “Short conjugated oligoelectrolytes and uses thereof” (The Regents Of The University Of California, priority 2018, dated 2023).)
